Experimental data taken from patent US20150132328A1 (priority 2011, published 2015).
Read-outs that look alike come from different tables or passages of the source.

Assays:
[1] = system: LR.4 lymphoma; conditions: for Survival (percent of live animals): LR.4 + IMMP
[2] = system: stress model induced in mice; conditions: for Corticosterone / IL-1: Table 22
[3] = system: BMK-16myc cells
From the text: We used BMK-16myc cells which are baby mouse kidney cells immortalized with genes of 16 protein of the human papilloma virus (HPV) and the myc gene, which grow in mouse, are highly invasive and produce metastases rapidly. One million cells were implanted subcutaneously in the back of each mouse. […] Subsequently, the animals were sacrificed and the tumors under the back skin as well as thymus, spleen, liver and kidney were collected for histopathological examination.
The cellular viability that was quantified by the MTT method, indicates the mitochondrial activity.

[4] = system: antibodies vs. LR.4 cells
Procedure: This was performed by flow cytometry. LR.4 cells were washed and incubated in serum dilutions obtained from mice, using as second antibody an antibody vs. mouse conjugated to fluoresce.

[5] = system: newborn rat thymocytes; conditions: With A
[6] = STRESS + IMMP, 10 ng/dose i.p., Table 21

Peptide LEDGPKFL + Zinc [IMMP]
Survival (percent of live animals) ([1]; week 12): 16%
Survival (percent of live animals) ([1]; week 13): 16%
Survival (percent of live animals) ([1]; week 14): 0%
Decrease of tumor growth ([1]; last two weeks): about 33%
Gain in survival at 50% ([1]; mouse, in vivo): greater than 4 weeks
Time all animals kept alive longer than the untreated group ([1]; mouse, in vivo): 5 weeks
Corticosterone ([2]; IMMP alone): 33.5 ± 2.1 ng/dL
IL-1 ([2]; IMMP alone): 6.9 ± 0.8 ng/dL
WEIGHT ([2]; IMMP alone, Table 22 (title: C57BL/6J mice with lymphoma LR.4)): 13.8 ± 1.2 g
IL-1 serum level [2, 6]: 6.9 ± 0.8 ng/dL
WEIGHT [2, 6]: 13.8 ± 1.2 g
corticosterone serum level [2, 6]: 33.5 ± 2.1 ng/dL
Corticosterone ([2]; STRESS + IMMP): 43.1 ± 3.8 ng/dL
IL-1 ([2]; STRESS + IMMP): 18.1 ± 2.0 ng/dL
WEIGHT ([2]; STRESS + IMMP, Table 22 (title: C57BL/6J mice with lymphoma LR.4)): 13.1 ± 0.9 g
Body weight loss ([2]; stress + IMMP (36% without)): 11%
Increase in corticosteroid production induced by stress ([2]; stress + IMMP (70% without)): 38%
Increase of plasma IL-1 over control ([2]; stress + IMMP (three times without)): increased only once
Difference with respect to control [3]: not observed any difference with respect to control
Cells proliferation (control percent, MTT) ([3]; IMMP (M) −8): 102 ± 2.9%
Cells proliferation (control percent, MTT) ([3]; IMMP (M) −9): 104 ± 3.1%
Cells proliferation (control percent, MTT) ([3]; IMMP (M) −10): 102 ± 3.5%
Cells proliferation (control percent, MTT) ([3]; IMMP (M) −11): 103 ± 2.7%
Cells proliferation (control percent, MTT) ([3]; IMMP (M) −12): 102 ± 3.1%
% of LR.4 cells stained with the serum antibody ([4]; IMMP alone, no tumor, serum dilution 0): 0%
% of LR.4 cells stained with the serum antibody ([4]; IMMP alone, no tumor, serum dilution 1:2): 0%
% of LR.4 cells stained with the serum antibody ([4]; IMMP alone, no tumor, serum dilution 1:4): 0%
% of LR.4 cells stained with the serum antibody ([4]; IMMP alone, no tumor, serum dilution 1:8): 0%
% of LR.4 cells stained with the serum antibody ([4]; IMMP alone, no tumor, serum dilution 1:16): 0%
% of LR.4 cells stained with the serum antibody ([4]; IMMP alone, no tumor, serum dilution 1:32): 0%
% of LR.4 cells stained with the serum antibody ([4]; IMMP alone, no tumor, serum dilution 1:64): 0%
% of LR.4 cells stained with the serum antibody ([4]; LR.4 + IMMP, serum dilution 0): 100%
% of LR.4 cells stained with the serum antibody ([4]; LR.4 + IMMP, serum dilution 1:2): 100%
% of LR.4 cells stained with the serum antibody ([4]; LR.4 + IMMP, serum dilution 1:4): 100%
% of LR.4 cells stained with the serum antibody ([4]; LR.4 + IMMP, serum dilution 1:8): 100%
% of LR.4 cells stained with the serum antibody ([4]; LR.4 + IMMP, serum dilution 1:16): 83%
% of LR.4 cells stained with the serum antibody ([4]; LR.4 + IMMP, serum dilution 1:32): 40%
% of LR.4 cells stained with the serum antibody ([4]; LR.4 + IMMP, serum dilution 1:64): 15%
Antibodies vs tumor relative to untreated group ([4]; mouse, in vivo): four times more antibodies
Cells Percent CD4 ([5]; [M] 10^−6): 15.1 ± 2.5%
Cells Percent CD8 ([5]; [M] 10^−6): 5.3 ± 1.5%
Cells Percent DN ([5]; [M] 10^−6): 6.6 ± 1.7%
Cells Percent DP ([5]; [M] 10^−6): 72.2 ± 1.5%
Cells Percent CD4 ([5]; [M] 10^−7): 14.2 ± 3.7%
Cells Percent CD8 ([5]; [M] 10^−7): 6.0 ± 2.2 %
Cells Percent DN ([5]; [M] 10^−7): 3.7 ± 0.2%
Cells Percent DP ([5]; [M] 10^−7): 73.3 ± 2.6%
Cells Percent CD4 ([5]; [M] 10^−8): 13.9 ± 2.6 %
Cells Percent CD8 ([5]; [M] 10^−8): 6.1 ± 0.2 %
Cells Percent DN ([5]; [M] 10^−8): 7.1 ± 2.8%
Cells Percent DP ([5]; [M] 10^−8): 74.8 ± 0.7 %
Cells Percent CD4 ([5]; [M] 10^−9): 17.7 ± 1.9 %
Cells Percent CD8 ([5]; [M] 10^−9): 4.8 ± 1.9%
Cells Percent DN ([5]; [M] 10^−9): 7.0 ± 1.1 %
Cells Percent DP ([5]; [M] 10^−9): 70.5 ± 1.2 %
Cells Percent CD4 ([5]; [M] 10^−10): 16.7 ± 1.0 %
Cells Percent CD8 ([5]; [M] 10^−10): 4.7 ± 2.2%
Cells Percent DN ([5]; [M] 10^−10): 5.1 ± 1.9%
Cells Percent DP ([5]; [M] 10^−10): 73.3 ± 3.0%
Cells Percent CD4 ([5]; [M] 10^−11): 15.4 ± 0.8 %
Cells Percent CD8 ([5]; [M] 10^−11): 6.0 ± 1.7%
Cells Percent DN ([5]; [M] 10^−11): 5.1 ± 2.0%
Cells Percent DP ([5]; [M] 10^−11): 74.8 ± 5.4%
Cells Percent CD4 ([5]; [M] 10^−12): 16.7 ± 0.9 %
Cells Percent CD8 ([5]; [M] 10^−12): 6.0 ± 0.5 %
Cells Percent DN ([5]; [M] 10^−12): 6.4 ± 0.4%
Cells Percent DP ([5]; [M] 10^−12): 71.8 ± 3.5 %
